The source of these data is article PMC7275090, “Mode of action of teixobactins in cellular membranes” (Nature Communications, 2020).

The conditions of data set [1]: vancomycin, unlike teixobactins; cited from earlier work. The text has this: In summary, a picture of a balanced binding mode emerges in which teixobactins use the conserved pyrophosphate as firm, specific anchor, whereas the interaction with the sugar-pentapeptide headgroup is more loosely defined[28],[29]. This behaviour enables teixobactins to recognize different cognate cell-wall building blocks and wall teichoic acids precursors, such as Lipid I, Lipid II, Lipid III, and undecaprenyl pyrophosphate that all have the PPi moiety in common but feature different headgroups. The capacity to recognize several conserved precursor molecules both maximizes the number of ...

Data set [2] is described as follows: Fluorescence microscopy of GUVs doped with NBD-labelled Lipid II (Lipid II clustering). Particulars: DOPC GUVs, 1 μM peptide, 4 h.
Description: GUVs were prepared using the electroformation method. The GUV cell is a self-assembled system which consists of a 5 mm-thick Teflon plate which is aligned with two titanium electrodes in a closed Teflon chamber. 1.5 μL of 0.5 mM DOPC doped with NBD-labelled Lipid II (0.1 mol%) were brushed on the electrodes. Next, the chamber was filled with 350 μL 0.1 M sucrose solution; the electrodes dipped in and then connected to a power supply which generated a sine wave of voltage 2.5 V at a frequency of 10 Hz for 90 min. Each microscopy slide (μ-slide 8 well, Ibidi) was covered with 350 μL BSA solution (1 mg/mL). To detach the GUVs from the electrodes the power supply was changed to square wave of voltage 2 V at a frequency of 2 Hz for 15 min. The slides were immersed in 300 μL 0.1 mM glucose solution to which 80 μL of GUVs were added. These were incubated for 4 h with 1 μM [R4L10]-teixobactin and observed by confocal microscopy. Anionic GUVs were prepared using a homemade electroformation setup with ITO coverslips (18 × 18 mm, 15–30 Ω, SPI supplies). On both slips, 3 μL of a chloroform–methanol (1:1, vol/vol) solution containing 1 mM of a 3:1 mixture of DOPC:DOPG (mol/mol) and 0.1 mol% NBD-labelled Lipid II was deposited and dried in a vacuum desiccator. With these slips, the electroformation chamber was assembled and filled with 0.1 M sucrose solution. The GUV cell was connected to the power supply and an alternating current applied (1 V, 10 Hz). GUV formation was carried out overnight.
Microscopy: GUVs were imaged using Zeiss LSM 880 with ×63/1.2NA glycerol objective lens. The NBD label appeared green upon excitation by the 488 nm laser. The emission range for detection was 530–545 nm (λem peak = 539 nm). The brightfield images were used for detection and location of the GUVs without a fluorescent signal and also as a control to observe their shape.
Data set [3] can be described thus: ssNMR 15N T1rho relaxation (dynamics of bound teixobactin), Lys-Lipid II. The settings on record: [L10] analogue, 60 kHz MAS. The procedure: Relaxation studies: ^1H-detected ^15N T1rho relaxation experiments were carried out at 950 and 700 MHz magnetic field, respectively, using 60 kHz MAS[51]. The ^15N transverse magnetization decay was probed with a ^15N spinlock field of 17.5 kHz. For the bulk, we measured the intensity of the most intense signal at ~8.80 ^1H ppm. T1rho trajectories were fit to single exponentials.
Lipid I or II-doped multi-laminar vesicle preparations: DOPC or DOPG lipids were mixed with Lipid I or II in 1:1 MeOH:CHCl3 at the final Lipid I or II molar ratio (0–4 mol%/mol). The mixtures were dried and the lipid films were hydrated by vortexing with 2 mL of a teixobactin solution in 40 mM phosphate, 25 mM NaCl, pH 7.0.
(§1) SSNMR samples: MLVs were collected by centrifugation (20,000×g) and loaded into ssNMR rotors. For 3.2 mm rotors, we used 800 nmol of antibiotic with unlabelled Lipid II or I, while we used 400 nmol with labelled Lipid II. For 1.3 mm rotors, samples contained 200 nmol of antibiotic for unlabelled Lipid II or I, while we used 100 nmol for labelled Lipid II. For all ssNMR samples, we used 4 mol%/mol Lipid II or I in the MLVs.

A short description of data set [4]: ssNMR signal intensity of Lipid II-bound teixobactin, DOPC vs DOPG liposomes.
Description: as §1
H/ppm H/ppm N spinlock duration (ms)
Weaker binding affinity to Lipid II in anionic conditions is a common property of the binding mode of teixobactins.
To validate and generalise our findings, we repeated ssNMR studies with a second analogue, [L10]-teixobactin, which is close to natural teixobactin. Both [L10]- teixobactin and [R4L10]-teixobactin show similar behaviour in anionic membranes, i.e., sharp drops in ssNMR sensitivity and marked increase in mobility in the complex. We note that only the difference between natural teixobactin and [Leu10]- teixobactin is the substitution of enduracididine10 by leucine10. We also note that the substitution by enduracididine10 by cationic or hydrophobic residues is tolerated […]
a) 1H-detected 1D NH spectra of Lipid II-bound [Leu10]-teixobactin measured in DOPC (cyan) and DOPG (red) liposomes. The signal-to-noise ratio is more than six times lower in anionic membranes. Both spectra were acquired with fully packed 1.3 mm rotors and 10240 scans each. b)15N T1rho signal decay curves of the bulk signal of Lipid II-bound [Leu10]- teixobactin in DOPC (cyan) and (DOPG (red) membranes. Relaxation is much faster […]
c) Corresponding 15N R1rho rates of Lipid II-bound [Leu10]-teixobactin in DOPC (cyan) and DOPG (red) membranes. The error bars show the standard error of the fit. Source data are provided as a Source Data file.
The spectra were acquired at 700 MHz with 60 kHz magic angle spinning (MAS).

Data set [5] deals with the molecule itself. The experiment in a line: solid-state NMR; 2D 13C13C PARISxy spectra with long magnetization transfer times (50-1000 ms), distance threshold ~8 Å; 13C,15N-labelled [R4L10]-teixobactin bound to unlabelled Lipid II (4 mol%) in DOPC membranes; 950 MHz, 15.5 kHz MAS, 270 K.

Bridge positions count the residues as written; N and C are the ends. Square brackets hold non-standard residues; d marks the D form. Ends that are not written are not given here. d(aIle) = CC[C@H](C)[C@@H](N)C(=O)O; dNMeF = CN[C@H](Cc1ccccc1)C(=O)O

With vancomycin, in data set [1], the “ability to bind Lipid II versions with different pentapeptides” value is reported as “unlike vancomycin”.
Turning to Leu10-teixobactin [[L10]-teixobactin], in data set [2] (0.1 mol% NBD-Lipid II), the “Lipid II segregation into clusters on GUVs” value was “segregation of Lipid II into clusters”. Further, in data set [2] (brightfield images, cluster sites show slight membrane deformations), the “vesicle integrity and morphology after incubation” value is recorded as “morphology is maintained”. Further, in data set [3] (Lys-LII in DOPC (Lys-LII PC)), the “Bulk 15N R1rho” value is 5.29 s⁻¹ and the “Bulk 15N T1rho” value was 189.00 ms. For the same molecule, in data set [3] (Lys-LII in DOPG (Lys-LII PG)), the “Bulk 15N R1rho” value came to 18.49 s⁻¹ and the “Bulk 15N T1rho” value turned out to be 54.07 ms. The “signal-to-noise ratio, times lower in anionic membranes” value in data set [4] (DOPG vs DOPC, 1H-detected 1D NH spectra, 10240 scans each) is “more than six”. For the same molecule, the “relative 1D NH signal, DOPC” value in data set [4] (Supplementary Figure 11a, DOPC (reference)) is on record as 100%. Moreover, the “relative 1D NH signal, DOPG” value in data set [4] (Supplementary Figure 11a, DOPG relative to DOPC) came to 15%.

B1: [R4L10]-teixobactin (peptide)
peptide: [dNMeF]IS[dR][d(aIle)]IS[dT]ALI
modifications: ester 8-C; also: 13C,15N-labelled at Ile2, Ser3, Ile6, Ser7, Ala9, Leu10
notes: Analogue of teixobactin, a natural undecapeptide from Eleftheria terrae; Cyclic depsipeptide with non-proteinogenic and D-residues; also called D-Arg4-Leu10-teixobactin; source: synthetic peptide (solid-phase synthesis, cyclised, purified by RP-HPLC)
As for B1, in data set [5], the binding result is “binds”.
